Among the data in a melting point compilation (Tetko et al.; mined from patent text by program, amines drawn as free bases though some values may be those of a salt) are melting point values, retold here.

A word on the melting point: it is the temperature of the solid-liquid transition. In turn, `Cc1cnccc1C(CCC(=O)O)C(=O)c1cccc(OCc2ccccc2)c1` (racemic) returned a melting point of 55 to 57 °C.
As to `O=C(NN1CCCCC1)NS(=O)(=O)c1ccc(CCN2C(=O)c3ccccc3C2(O)c2ccccc2)cc1` (configuration not stated), the melting point stood at 228 °C.
The value for `C=CC(=O)Oc1ccc(N2C(=O)C(=C(C)C)/C(=C(\c3cc(C)oc3C)C(C)C)C2=O)cc1` was 50 to 52 °C; that for `N#Cc1cnc2cc(-c3ccc(CN4CCOCC4)o3)ccc2c1Nc1ccc(Cl)cc1Cl` was 118 to 120 °C; that for `Cc1cnc(C2=NC(C)(C(C)C)C(=O)N2)c(C(=O)c2ccc(C)s2)c1` (configuration not stated) was 173 to 175 °C.
Regarding `CCn1cc(C(=O)O)c(=O)c2cc(F)c(Cl)cc21`, the melting point fell in the range of 279 to 281 °C.
The value for `CCOC(=O)N=P(c1ccccc1)(c1ccccc1)c1ccccc1CN1CCCC1` was 120 to 122 °C; that for `CC(C)(C)N(NC(=O)c1ccccc1)C(=O)c1cccs1` was more than 200 °C; that for `COc1ccc(-c2cc(=Nc3c(C)cc(C)cc3C)n(C)c(N3CC=CCC3)n2)cc1OC` was 161 to 163 °C.
Then `O=c1[nH]nc2n1-c1ccc(Cl)cc1C(c1ccccc1F)CC2` (configuration not stated), with 236 to 238 °C; and `N#Cc1nn(-c2c(Cl)cc(C(F)(F)F)cc2Cl)c(N)c1-c1cccc(N)c1`, with 187 °C; and `CC(=O)C(C(=O)OC(C)(C)C)C(=O)c1ccc(C(=O)C(C(C)=O)C(=O)OC(C)(C)C)cc1` (configuration not stated), with 94 to 96 °C.
For `COc1cc(OC)nc(Oc2cccc3c2C(=O)SC3C)n1` (configuration not stated), the melting point fell in the range of 157 to 159 °C.
The value for `COC(=O)c1ccc(-c2ccc(Cl)cc2)nc1` was 124 to 126 °C; that for `CCCCn1cnnc1SCC(=O)c1ccc(OC)cc1` was 79 to 82 °C; that for `O=C(OC1CCN(Cc2ccccc2)CC1)c1cccc(I)c1` was 101 to 103 °C.
Then `O=C(O)c1cnc(Cl)cc1C(F)(F)F`, with 115 to 117 °C; and `COCCN(C)C1=N/C(=C\c2c[nH]c3ncc(Cl)cc23)C(=O)N1`, with 281 °C.
The value for `O=C(O)Cc1ccccc1Sc1ccc(F)c(Cl)c1` was 85 to 87 °C; that for `COc1ccc2c(c1)C=Cn1c(nnc1OC)C2` was 185 to 186 °C.
The compound `OCC1OC(n2cnc3c(NC4CCCCC4)nc(Cl)nc32)CC1O` (configuration not stated) displayed a melting point of 160 to 162 °C.
Then `CCOC(=O)C(C)(C)Cc1c(SC(C)(C)C)c2cc(O)ccc2n1Cc1ccc(Cl)cc1`, with 151 to 152 °C.
Then `COC(=O)Cc1cccc(OC)c1OCCCc1cc(O)nn1Cc1ccc(Cl)cc1Cl`, with 110 to 111 °C; and `OC1(C2CCN(Cc3ccccc3)CC2)c2ccsc2CCn2ccnc21` (configuration not stated), with 189 °C.
The value for `COc1cccc(NC(=O)NC2CC(c3ccccc3)CC(Cc3ccccc3)N(CC(=O)OC(C)(C)C)C2=O)c1` (configuration not stated) was 95 to 105 °C.
As for `CCOC(=O)c1ccc(OCCC2CCN(c3ccc(F)nn3)CC2)cc1`, the melting point stood at 132 °C.
Then `CCC1(O)OCc2c1ccnc2OC` (configuration not stated), with 145 °C; and `CCc1oc2ccccc2c1C(=O)c1ccc(OCCOS(=O)(=O)c2ccc(C)cc2)cc1`, with 95 to 98 °C; and `CC(=O)c1cc(S(=O)(=O)N(C)C)c(Cl)cc1Cl`, with 98 to 100 °C.
The value for `CCOc1ccc(S(=O)(=O)N(Cc2ccc(C(=O)OC)cc2)[C@@H](CC)c2ccccc2)cc1` was 102 to 104 °C; that for `CCOC(=O)C1=C(C)NC(C)=C(C(=O)OC)C1c1cccc(N)c1` (single isomer, unassigned; (-)) was 173 to 175 °C; that for `O=c1cc2c(nn1Cc1ccc(Cl)cc1)-c1ccccc1S(=O)CC2` (configuration not stated) was 207 to 209 °C.
Then `CC(C)c1ccccc1N/C(S)=C(\C#N)C(=O)Nc1ccc(-c2ncn(-c3ccc(OC(F)(F)F)cc3)n2)cc1`, with 159 to 162 °C; and `CC(=NO)C1CCC2C3CC=C4C(C)(C)C(=O)C(C#N)CC4(C)C3CCC12C` (configuration not stated), with 190 to 192 °C; and `Cc1cc2[nH]c(=O)c(=O)[nH]c2cc1C`, with more than 250 °C.
`O=C(Cn1c(-c2ccc(Cl)cc2)nc2cccnc21)N1CCN(c2cccc(C(F)(F)F)c2)CC1` showed a melting point of 185 to 186 °C.
Then `COc1nc2cc(Cl)c(Cl)cc2nc1S(C)(=O)=O`, with 216 to 219 °C.
The value for `CC(=O)SCC(Cc1ccccc1C)C(=O)O` (configuration not stated) was 63 to 70 °C; that for `C=CCc1c(OCC(=O)O)ccc2c(CCc3nc(-c4ccc(Cl)cc4Cl)oc3C(C)C)noc12` was 80 to 85 °C.
Then `CC(=O)c1cccc(-c2cc3c(=O)n(NS(C)(=O)=O)c(=O)[nH]c3cc2C(F)(F)F)c1`, with 220 to 222 °C.
Turning to `C=CC(=O)Oc1ccc(Cl)c2c1Sc1ccccc1C2`, the melting point is 164 to 165 °C.
Regarding `COc1ccc(-c2[nH]c3cn[nH]c(=O)c3c2Cl)cc1OC1CC1`, the melting point was in the range of 293 to 294 °C.
The value for `CCOC(=O)C(=O)c1c[nH]c2ccc(Br)cc12` was 182 to 183 °C.
The value for `CC(C)Sc1cc([Si](C)(C)C)oc1C(=O)Nc1nnn[nH]1` was 181 to 182 °C; that for `CCCC1CCC(C2CCc3c(c(F)c(F)c4cc(OCC)ccc34)O2)CC1` (configuration not stated) was 158 °C.
The value for `Cc1c(C(=O)OC(C)C)sc(C(=O)OC(C)C)c1O` was 87 to 89 °C; that for `CCC(O)(CC)CC/C=C(\C)c1ccc(COc2ccc(CO)c(CO)c2)s1` was 100 to 102 °C.
Take `COc1cc2c(c(Cl)c1Cl)C(=O)C(C)(C1CCCC1)C2` (configuration not stated): the melting point is 109 to 112 °C.
Then `COc1cc2cc(C(=O)O)cc(-c3ccnc(Cl)c3)c2cc1OC`, with more than 250 °C; and `COc1ccc(C(=O)N2c3ccccc3C(n3c4ccccc4c4ccccc43)CC2CCCCC(=O)O)cc1OC` (configuration not stated), with 226 to 228 °C; and `Cc1c(O)cccc1C(=O)N[C@@H](Cc1ccccc1)[C@H](O)C(=O)N1CSC(C)(C)[C@H]1C(=O)N[C@H]1C=CCCC1`, with 193 to 195 °C.
The value for `CC(=O)OC1CCC2C3CCC4CC(=O)CC(C)C4(C)C3CCC12C` (configuration not stated) was 179 to 180 °C; that for `CC1(C)CCC(C)(C)c2cc(CC#Cc3ccc(CO)c(O)c3)ccc21` was 94 to 95 °C.
Then `CN1C(=O)c2ccccc2OC1C(Cl)(Cl)Cl` (configuration not stated), with 82 to 84 °C; and `CCOC(=O)c1c(C(F)(F)F)ncc(C(=O)O)c1OC(C)C`, with 97 to 99 °C; and `Cc1c(C)c2ccc(OCc3ccccc3)cc2oc1=O`, with 131 to 135 °C.
`CC(C)c1cc(O)cc(C(C)C)c1NC(=O)CN1CCN(CCSc2nc3ccccc3o2)CC1` showed a melting point of 162 to 164 °C.
The value for `Cc1cc(O)c(S(=O)CCC(C)C)c(=O)o1` (configuration not stated) was 80 to 81 °C.
The value for `COc1ccc2cc(C(Br)Br)ccc2c1` was 116 °C; that for `CNC(=O)CN1CCc2cc(Nc3ncc(Cl)c(N[C@H]4[C@@H](C(N)=O)[C@@H]5C=C[C@H]4C5)n3)c(OC)cc2CC1` was 135 to 145 °C; that for `C#Cc1ccc(C=O)cc1` was 122 to 123 °C.
The value for `Cc1ccc(-n2nc(C)c(CC(=O)O)c2C)cc1` was 119 to 121 °C.
